A short description of this data set: Human HepG2 cell viability assay in 384 well format. Type of data set: toxicity, cell-based. On the set-up: dose 125 nL, time 70.5 hour; cytotoxicity at 70.5 h: concentration not given beside the values. The following applies: HepG2 cells, read-out: Inhibition.

As for `Cc1cc2n(n1)CC(CNCc1cnn(C)c1)CN2` (stereo unspecified), the cytotoxicity at 70.5 h was -15%.

Take `COc1c(CNCCC(=O)Nc2cccc(C)n2)c(C(C)C)nn1C`: the cytotoxicity at 70.5 h came to 14.3%.

As to `CN1CCN(C(=O)CCCc2ccccn2)c2ccc(F)cc21`, the cytotoxicity at 70.5 h is 14.3%.

Regarding `Cc1ccc(N(C)CC(O)COCc2ccccc2)c(C)c1` (stereo unspecified), the cytotoxicity at 70.5 h is 12.5%.

As for `COc1c(NC(=O)N(C)CCOc2ccccc2)c(C)nn1C`, the cytotoxicity at 70.5 h amounted to 15.1%.

For `COCCOCC(=O)NCCCOC1CCCc2ccccc21` (stereo unspecified), the cytotoxicity at 70.5 h was determined as 27.2%.

For the compound `Cc1noc(CNc2ccc(OC(F)F)cc2OC(F)F)n1`, the cytotoxicity at 70.5 h was -2.77%.

Consider `CC(=O)NCCNC(=O)Nc1ccc(C)cc1OCc1ccccc1`, for which the cytotoxicity at 70.5 h was -1.2%.

Regarding `Cc1cc(C)cc(C(=O)NCCCC2(C3OCCO3)CCOCC2)c1`, the cytotoxicity at 70.5 h is 1.06%.

Take `O=C(CCc1nccs1)N1CCC(C(=O)O)(c2ccccc2)CC1`: the cytotoxicity at 70.5 h was -0.696%.

With `CCN(CC)S(=O)(=O)CCNc1ncnc2cc(F)c(F)cc12`, the cytotoxicity at 70.5 h is -1.89%.

As for `Cc1nc(CNC(=O)Nc2ccc3c(c2)CCCC(=O)N3)sc1C`, the cytotoxicity at 70.5 h was -0.115%.

With `N#Cc1ccc(NCCCN2C(=O)COc3ccccc32)nc1`, the cytotoxicity at 70.5 h is -1.32%.

Turning to `Cc1nc(CNC(=O)Nc2ccc3c(c2)CCCN3C)sc1C`, the cytotoxicity at 70.5 h is -0.336%.

`COc1cccc(C2(NC(=O)CCNC(C)=O)CC2)c1`: the cytotoxicity at 70.5 h was determined as 5.65%.

In the case of `COc1c(NC(=O)N(C)CCOc2ccc(F)cc2)c(C)nn1C`, the cytotoxicity at 70.5 h came to 2.48%.

On to `Cc1noc(C)c1Cn1cc(I)cc(C)c1=O`, for which the cytotoxicity at 70.5 h came out at 4.77%.

Turning to `CN1C(=O)CCN(C(=O)C2CC=CC2)c2ccccc21`, the cytotoxicity at 70.5 h is 1.54%.

Regarding `COc1cccc(-c2n[nH]cc2CNCC2CCS(=O)(=O)C2)c1` (stereo unspecified), the cytotoxicity at 70.5 h turned out to be 0.998%.

In the case of `O=C(CCCc1ccccn1)N1CCOc2ccc(F)cc21`, the cytotoxicity at 70.5 h amounted to 1.36%.

`FC(F)(F)c1nnc2n1CCN(c1nc(C3CC3)ns1)C2`: the cytotoxicity at 70.5 h is -1.08%.

Take `COCCC(=O)NCCCOC1CCCc2ccccc21` (stereo unspecified): the cytotoxicity at 70.5 h stood at 1.55%.

Consider `Cn1cc(C2CCCN2C(=O)CCn2ccc3ccccc32)cn1` (stereo unspecified), for which the cytotoxicity at 70.5 h worked out at 3.44%.

For the compound `COc1cccc(COCC(O)CN(C)c2ccc(C)cc2C)c1` (stereo unspecified), the cytotoxicity at 70.5 h was -0.324%.

For `Cn1cc(C2CCCN2C(=O)Cn2ccc3ccccc32)cn1` (stereo unspecified), the cytotoxicity at 70.5 h is -0.47%.

In the case of `Cc1ccc(N(C)CC(O)COCc2ccccc2F)c(C)c1` (stereo unspecified), the cytotoxicity at 70.5 h was -0.728%.

With `COc1c(CNCCC(=O)Nc2cccc(C)n2)c(C)nn1C`, the cytotoxicity at 70.5 h was -1.12%.

Regarding `CC(C)N(Cc1cccnc1)C(=O)CCSc1ccc(C#N)cc1`, the cytotoxicity at 70.5 h is 5.31%.

Turning to `CCCc1cc(NC(=O)c2cc(N3CCNC3=O)c(F)cc2F)n[nH]1`, the cytotoxicity at 70.5 h was 1.56%.

Consider `Cc1cc(CS(=O)(=O)CC(=O)N2c3ccccc3CC2C)no1` (stereo unspecified), for which the cytotoxicity at 70.5 h is -0.335%.

Consider `Cc1noc(C)c1CS(=O)(=O)CC(=O)N1c2ccccc2CC1C` (stereo unspecified), for which the cytotoxicity at 70.5 h is -12%.

In the case of `CN(C)C(CNCc1nc(-c2ccsc2)no1)c1cccs1` (stereo unspecified), the cytotoxicity at 70.5 h was -8.94%.

On to `Cc1cc(C)c(CNc2ncnc3c2cnn3C)c(=O)[nH]1`, for which the cytotoxicity at 70.5 h is -11.1%.

In the case of `CC(C)N(Cc1cccnc1)C(=O)CNc1ccc(C#N)cc1`, the cytotoxicity at 70.5 h was -12.5%.

Regarding `N#Cc1ccc(OC2CCN(CC(=O)NCC3CCCO3)CC2)cc1` (stereo unspecified), the cytotoxicity at 70.5 h was -5%.

As for `O=C(CCCNC(=O)Nc1ccc(F)cc1)Nc1cn[nH]c1`, the cytotoxicity at 70.5 h was -7.73%.

For the compound `CCCc1cc(NC(=O)c2ccc(Cl)c(N3CCNC3=O)c2)n[nH]1`, the cytotoxicity at 70.5 h was 11.9%.

In the case of `CS(=O)(=O)c1nccn1Cc1ccc(F)cc1Cl`, the cytotoxicity at 70.5 h was -6.78%.

With `CC(Nc1ccc(Oc2cccc(C#N)c2)cc1)C(=O)NC1CC1` (stereo unspecified), the cytotoxicity at 70.5 h was -3.83%.

On to `CNS(=O)(=O)c1cc(C(=O)N(C)Cc2sccc2C)c(C)o1`, for which the cytotoxicity at 70.5 h is -5.52%.

Regarding `CC1CN(Cc2ccccc2)CCCN1CCCS(C)(=O)=O` (stereo unspecified), the cytotoxicity at 70.5 h is -4.81%.

`COc1ccc(S(=O)(=O)Cc2noc(CC(C)C)n2)cc1`: the cytotoxicity at 70.5 h amounted to 5.74%.

As to `Cc1ccc(N2CCc3ncnc(C)c3CC2)nn1`, the cytotoxicity at 70.5 h came out at 18.8%.

Regarding `O=C(NC[C@@H]1C[C@@H]2CN(C(=O)CO)C[C@H]2O1)c1ccsc1`, the cytotoxicity at 70.5 h was 21%.

Consider `O=C(NCC1CC2(CO1)CN(c1ncccn1)C2)C1CCC1` (stereo unspecified), for which the cytotoxicity at 70.5 h amounted to 2.73%.

With `COc1cc(N2CC[C@@H]3[C@@H](CC2)OCCN3CC2CC2)ncn1`, the cytotoxicity at 70.5 h is -4.1%.

Consider `Cn1cc(CN2C[C@H]3CCC[C@@]3(COc3cccnc3)C2)cn1`, for which the cytotoxicity at 70.5 h was -2.32%.

Take `CCN(CC)c1ncnc2c1CCN(c1ccc(C)nn1)CC2`: the cytotoxicity at 70.5 h is -1.7%.

For `Cn1cccc1C(=O)NC[C@H]1C[C@@H]2CN(C(=O)c3ccco3)C[C@@H]2O1`, the cytotoxicity at 70.5 h was -1.72%.

As to `CCN(C)c1ncnc2c1CCN(c1ccc(C)nn1)CC2`, the cytotoxicity at 70.5 h is -2.59%.

Turning to `O=C(c1ccco1)N1CCCC2(C1)CN(c1nncs1)CCO2` (stereo unspecified), the cytotoxicity at 70.5 h is -5.17%.

`COCCN1CC2(CCOCC2)c2cc(NC(=O)C3CC=CC3)ccc21`: the cytotoxicity at 70.5 h came out at 28.4%.

As for `CCN1C(=O)CC[C@]12CC[C@@H](NC(=O)NCc1cccnc1)CC2`, the cytotoxicity at 70.5 h is -4.88%.

As to `CN1C(=O)CC[C@]12CC[C@@H](NC(=O)NCc1cccnc1)CC2`, the cytotoxicity at 70.5 h was -4%.

With `O=C(NCc1cccnc1)N[C@H]1CC[C@@]2(CCC(=O)N2CC2CC2)CC1`, the cytotoxicity at 70.5 h stood at 8.65%.

With `O=C(NCCc1cccnc1)c1nc2c(s1)CCCN2C(=O)C1CC1`, the cytotoxicity at 70.5 h was -7.13%.

Regarding `COCC1c2c(cnn2C)CCN1C(=O)c1cscn1` (stereo unspecified), the cytotoxicity at 70.5 h is -1.37%.

As for `Cc1nc(CNCC2Cn3nncc3CO2)cs1` (stereo unspecified), the cytotoxicity at 70.5 h was -2.11%.

Consider `Cc1noc(C)c1CNCC1Cn2nncc2CO1` (stereo unspecified), for which the cytotoxicity at 70.5 h is -2.84%.

For `O=C1CC[C@H]2[C@H](CCN2S(=O)(=O)C2CC2)N1CCN1CCCC1`, the cytotoxicity at 70.5 h was 25.5%.

Take `Cn1cccc1C(=O)N[C@H]1CN(Cc2ccoc2)[C@@H]2CCCO[C@H]12`: the cytotoxicity at 70.5 h is 17.5%.

For the compound `c1cnc(N2CCO[C@H]3CN(CC4CCOC4)C[C@H]32)cn1` (stereo partly specified), the cytotoxicity at 70.5 h is -2.13%.

For the compound `CCC(=O)N1CCC2(CC1)C(c1cccnc1)CC(=O)N2CCOC` (stereo unspecified), the cytotoxicity at 70.5 h came out at 1.53%.

For the compound `COc1ccccc1CN1C[C@@H]2CN(C(C)=O)CCO[C@@H]2C1`, the cytotoxicity at 70.5 h was -1.68%.

For `CC(=O)N1CCO[C@@H]2CN(Cc3ccccc3F)C[C@@H]2C1`, the cytotoxicity at 70.5 h is -5.88%.

As for `O=C(c1ccccc1F)N1CCC2(CC1)CC(Oc1ccccn1)CO2` (stereo unspecified), the cytotoxicity at 70.5 h is -4.93%.

Turning to `Cc1cccc(CN2CCN3C[C@H](Oc4cncnc4)C[C@H]3C2)n1`, the cytotoxicity at 70.5 h was -0.54%.

As for `c1ccc(CN2CCN3C[C@H](Oc4cncnc4)C[C@H]3C2)nc1`, the cytotoxicity at 70.5 h is -3.2%.

Turning to `c1cncc(CN2Cc3nccn3CC(Cn3cccn3)C2)c1` (stereo unspecified), the cytotoxicity at 70.5 h was -6.13%.

In the case of `COCC1CC2(CCN(Cc3nccs3)CC2)CN1Cc1ccccn1` (stereo unspecified), the cytotoxicity at 70.5 h came to 9.76%.

For `CN(C)CCN1CCCC12CCN(Cc1nccn1C)CC2`, the cytotoxicity at 70.5 h was -0.128%.

(Values after ChEMBL document CHEMBL3507680, “University of Dundee, Gates Library screen for HepG2 cell viability”.)
